According to ChEMBL document CHEMBL1147667, “Synthesis and structure-activity relationship study of antidiabetic penta-O-galloyl-D-glucopyranose and its analogues” (2006):

What follows are molecules tested on 3T3-L1 (assay: [1-3H]-2-deoxy-D-glucose uptake in 3T3 L1 adipocytes).
Format: functional, Mus musculus
Design: reference not given here

In order of rising Activity:
1. O=C(OC[C@H]1OC[C@H](OC(=O)c2cc(O)c(O)c(O)c2)[C@@H](OC(=O)c2cc(O)c(O)c(O)c2)[C@@H]1OC(=O)c1cc(O)c(O)c(O)c1)c1cc(O)c(O)c(O)c1  5 Bq
2. O=C(OC[C@H]1O[C@@H](OC(=O)c2cc(O)c(O)c(O)c2)[C@H](OC(=O)c2cc(O)c(O)c(O)c2)C[C@@H]1OC(=O)c1cc(O)c(O)c(O)c1)c1cc(O)c(O)c(O)c1  7 Bq
3. O=C(O[C@@H]1OC[C@@H](OC(=O)c2cc(O)c(O)c(O)c2)[C@H](OC(=O)c2cc(O)c(O)c(O)c2)[C@@H]1OC(=O)c1cc(O)c(O)c(O)c1)c1cc(O)c(O)c(O)c1  7 Bq
4. O=C(O[C@H]1OC[C@@H](OC(=O)c2cc(O)c(O)c(O)c2)[C@@H](OC(=O)c2cc(O)c(O)c(O)c2)[C@H]1OC(=O)c1cc(O)c(O)c(O)c1)c1cc(O)c(O)c(O)c1  10 Bq
5. O=C(OC[C@H]1O[C@H](OC(=O)c2ccc(O)c(O)c2)[C@H](OC(=O)c2ccc(O)c(O)c2)[C@@H](OC(=O)c2ccc(O)c(O)c2)[C@@H]1OC(=O)c1ccc(O)c(O)c1)c1ccc(O)c(O)c1  10 Bq
6. O=C(OC[C@H]1O[C@H](OC(=O)c2cc(O)c(O)c(O)c2)[C@H](OC(=O)c2cc(O)c(O)c(O)c2)C[C@@H]1OC(=O)c1cc(O)c(O)c(O)c1)c1cc(O)c(O)c(O)c1  11 Bq
7. O=C(O[C@@H]1OC[C@@H](OC(=O)c2cc(O)c(O)c(O)c2)[C@@H](OC(=O)c2cc(O)c(O)c(O)c2)[C@H]1OC(=O)c1cc(O)c(O)c(O)c1)c1cc(O)c(O)c(O)c1  12 Bq
8. O=C(OC1OC[C@H](OC(=O)c2cc(O)c(O)c(O)c2)[C@H](OC(=O)c2cc(O)c(O)c(O)c2)[C@H]1OC(=O)c1cc(O)c(O)c(O)c1)c1cc(O)c(O)c(O)c1 (single isomer, unassigned; 65)  14 Bq
9. C[C@H]1O[C@@H](OC(=O)c2cc(O)c(O)c(O)c2)[C@H](OC(=O)c2cc(O)c(O)c(O)c2)[C@@H](OC(=O)c2cc(O)c(O)c(O)c2)[C@@H]1OC(=O)c1cc(O)c(O)c(O)c1  15 Bq
10. O=C(OC[C@H]1O[C@@H](OC(=O)c2cc(O)c(O)c(O)c2)C[C@@H](OC(=O)c2cc(O)c(O)c(O)c2)[C@@H]1OC(=O)c1cc(O)c(O)c(O)c1)c1cc(O)c(O)c(O)c1  15 Bq
11. O=C(OC[C@H]1O[C@H](OC(=O)c2cc(O)cc(O)c2)[C@H](OC(=O)c2cc(O)cc(O)c2)[C@@H](OC(=O)c2cc(O)cc(O)c2)[C@@H]1OC(=O)c1cc(O)cc(O)c1)c1cc(O)cc(O)c1  16 Bq
12. O=C(OC[C@H]1O[C@@H](OC(=O)c2cc(O)c(O)c(O)c2)[C@@H](OC(=O)c2cc(O)c(O)c(O)c2)[C@@H](OC(=O)c2cc(O)c(O)c(O)c2)[C@@H]1OC(=O)c1cc(O)c(O)c(O)c1)c1cc(O)c(O)c(O)c1  19 Bq
13. O=C(OC[C@H]1O[C@@H](OC(=O)c2cc(O)c(O)c(O)c2)[C@H](OC(=O)c2cc(O)c(O)c(O)c2)[C@@H](OC(=O)c2cc(O)c(O)c(O)c2)[C@H]1OC(=O)c1cc(O)c(O)c(O)c1)c1cc(O)c(O)c(O)c1  19 Bq
14. O=C(OC[C@H]1O[C@@H](OC(=O)c2ccc(O)c(O)c2)[C@H](OC(=O)c2ccc(O)c(O)c2)[C@@H](OC(=O)c2ccc(O)c(O)c2)[C@@H]1OC(=O)c1ccc(O)c(O)c1)c1ccc(O)c(O)c1  20 Bq
15. O=C(OC[C@H]1O[C@H](OC(=O)c2cc(O)c(O)c(O)c2)[C@@H](OC(=O)c2cc(O)c(O)c(O)c2)[C@@H](OC(=O)c2cc(O)c(O)c(O)c2)[C@@H]1OC(=O)c1cc(O)c(O)c(O)c1)c1cc(O)c(O)c(O)c1  20 Bq
16. COC(=O)c1cc(O)c(O)c(O)c1 [GALLIC ACID METHYL ESTER]  20 Bq
17. O=C(O[C@@H]1OC[C@@H](OC(=O)c2cc(O)c(O)c(O)c2)[C@H](OC(=O)c2cc(O)c(O)c(O)c2)[C@H]1OC(=O)c1cc(O)c(O)c(O)c1)c1cc(O)c(O)c(O)c1  21 Bq
18. O=C(O[C@H]1OC[C@@H](OC(=O)c2cc(O)c(O)c(O)c2)[C@H](OC(=O)c2cc(O)c(O)c(O)c2)[C@@H]1OC(=O)c1cc(O)c(O)c(O)c1)c1cc(O)c(O)c(O)c1  21 Bq
19. O=C(OC[C@H]1O[C@H](OC(=O)c2cc(O)c(O)c(O)c2)[C@H](OC(=O)c2cc(O)c(O)c(O)c2)[C@@H](OC(=O)c2cc(O)c(O)c(O)c2)[C@H]1OC(=O)c1cc(O)c(O)c(O)c1)c1cc(O)c(O)c(O)c1  22 Bq
20. O=C(OC[C@H]1O[C@H](OC(=O)c2cc(O)c(O)c(O)c2)[C@H](OC(=O)c2cc(O)c(O)c(O)c2)[C@H](OC(=O)c2cc(O)c(O)c(O)c2)[C@@H]1OC(=O)c1cc(O)c(O)c(O)c1)c1cc(O)c(O)c(O)c1  23 Bq
21. O=C(OC1OC[C@H](OC(=O)c2cc(O)c(O)c(O)c2)[C@H](OC(=O)c2cc(O)c(O)c(O)c2)[C@H]1OC(=O)c1cc(O)c(O)c(O)c1)c1cc(O)c(O)c(O)c1 (single isomer, unassigned; 63)  23 Bq
22. CC(=O)OC[C@H]1O[C@@H](OC(C)=O)[C@H](OC(C)=O)[C@@H](OC(C)=O)[C@@H]1OC(C)=O  24 Bq
23. O=c1oc2c(O)c(O)cc3c(=O)oc4c(O)c(O)cc1c4c23 [ELLAGIC ACID]  27 Bq
24. O=C(OC[C@H]1O[C@@H](OC(=O)c2ccc(O)cc2)[C@H](OC(=O)c2ccc(O)cc2)[C@@H](OC(=O)c2ccc(O)cc2)[C@@H]1OC(=O)c1ccc(O)cc1)c1ccc(O)cc1  27 Bq
25. O=C(OC[C@@H]1C[C@H](OC(=O)c2cc(O)c(O)c(O)c2)[C@@H](OC(=O)c2cc(O)c(O)c(O)c2)[C@@H](OC(=O)c2cc(O)c(O)c(O)c2)O1)c1cc(O)c(O)c(O)c1  28 Bq
26. O=C(OC[C@H]1O[C@H](OC(=O)c2cc(O)c(O)c(O)c2)C[C@@H](OC(=O)c2cc(O)c(O)c(O)c2)[C@@H]1OC(=O)c1cc(O)c(O)c(O)c1)c1cc(O)c(O)c(O)c1  29 Bq
27. O=C(OC[C@H]1O[C@@H](OC(=O)c2cc(O)cc(O)c2)[C@H](OC(=O)c2cc(O)cc(O)c2)[C@@H](OC(=O)c2cc(O)cc(O)c2)[C@@H]1OC(=O)c1cc(O)cc(O)c1)c1cc(O)cc(O)c1  30 Bq
28. O=C(OC[C@@H]1C[C@H](OC(=O)c2cc(O)c(O)c(O)c2)[C@@H](OC(=O)c2cc(O)c(O)c(O)c2)[C@H](OC(=O)c2cc(O)c(O)c(O)c2)O1)c1cc(O)c(O)c(O)c1  30 Bq
29. O=C(OC[C@H]1O[C@H](OC(=O)c2ccc(O)cc2)[C@H](OC(=O)c2ccc(O)cc2)[C@@H](OC(=O)c2ccc(O)cc2)[C@@H]1OC(=O)c1ccc(O)cc1)c1ccc(O)cc1  30 Bq
30. CC(=O)OC[C@H]1O[C@H](OC(C)=O)[C@H](OC(C)=O)[C@@H](OC(C)=O)[C@@H]1OC(C)=O  31 Bq
31. O=C(O)c1cc(O)c(O)c(O)c1 [GALLIC ACID]  31 Bq
32. O=C(OC[C@H]1O[C@@H](OC(=O)c2cc(O)c(O)c(O)c2)[C@H](OC(=O)c2cc(O)c(O)c(O)c2)[C@H](OC(=O)c2cc(O)c(O)c(O)c2)[C@@H]1OC(=O)c1cc(O)c(O)c(O)c1)c1cc(O)c(O)c(O)c1  34 Bq
33. O=C(OC[C@H]1O[C@H](OC(=O)c2ccccc2)[C@H](OC(=O)c2ccccc2)[C@@H](OC(=O)c2ccccc2)[C@@H]1OC(=O)c1ccccc1)c1ccccc1  34 Bq
34. OC[C@H]1O[C@H](O)[C@H](O)[C@@H](O)[C@@H]1O  34 Bq
35. O=C(OC[C@H]1OC(OC(=O)c2cc(O)c(O)c(O)c2)[C@H](OC(=O)c2cc(O)c(O)c(O)c2)[C@@H](OC(=O)c2cc(O)c(O)c(O)c2)[C@@H]1OC(=O)c1cc(O)c(O)c(O)c1)c1cc(O)c(O)c(O)c1 (single isomer, unassigned) [PENTAGALLOYL GLUCOSE]  107 Bq
36. C[C@H]1O[C@H](OC(=O)c2cc(O)c(O)c(O)c2)[C@H](OC(=O)c2cc(O)c(O)c(O)c2)[C@@H](OC(=O)c2cc(O)c(O)c(O)c2)[C@@H]1OC(=O)c1cc(O)c(O)c(O)c1  115 Bq
37. O=C(O[C@H]1OC[C@@H](OC(=O)c2cc(O)c(O)c(O)c2)[C@H](OC(=O)c2cc(O)c(O)c(O)c2)[C@H]1OC(=O)c1cc(O)c(O)c(O)c1)c1cc(O)c(O)c(O)c1  124 Bq
38. O=C(O[C@H]1O[C@H](CO)[C@@H](OC(=O)c2cc(O)c(O)c(O)c2)[C@H](OC(=O)c2cc(O)c(O)c(O)c2)[C@H]1OC(=O)c1cc(O)c(O)c(O)c1)c1cc(O)c(O)c(O)c1  143 Bq
39. O=C(OC[C@H]1O[C@H](OC(=O)c2cc(O)c(O)c(O)c2)[C@H](OC(=O)c2cc(O)c(O)c(O)c2)[C@@H](OC(=O)c2cc(O)c(O)c(O)c2)[C@@H]1OC(=O)c1cc(O)c(O)c(O)c1)c1cc(O)c(O)c(O)c1  145 Bq
40. O=C(O[C@H]1O[C@H](CCl)[C@@H](OC(=O)c2cc(O)c(O)c(O)c2)[C@H](OC(=O)c2cc(O)c(O)c(O)c2)[C@H]1OC(=O)c1cc(O)c(O)c(O)c1)c1cc(O)c(O)c(O)c1  181 Bq
